From patent publication US10485861B2 (priority 2013, dated 2019)

System: Chlamydia trachomatis
Format: in vivo, mice
Conditions: subcutaneous immunization with UV-inactivated Chlamydia, alone or co-administered with the named adjuvant

CC(C)Cn1cnc2c(N)nc3ccccc3c21 [IMQ, imiquimod]
Protection against genital Chlamydia challenge (Chlamydia load): did not provide protection or tolerance
